Measured values taken from publication PMC8918352, “Structure and activity of the DHNA Coenzyme-A Thioesterase from Staphylococcus aureus providing insights for innovative drug development” (Scientific Reports, 2022).

How the values were obtained:
[1] = system: SaDHNA WT (DHNA Coenzyme-A thioesterase); assay: Thioesterase activity of SaDHNA wild type (DTNB/TNB, 412 nm); type: biochemical, Staphylococcus aureus
Description: (§1) To obtain some initial information about SaDHNA thioesterase substrate specificity, two different substrates classified according to their CoA chain length and unsaturation degree were assessed. The longest acyl-CoA chain substrate contained eighteen acyl saturated chain stearoyl-CoA (C18:0), while the shortest chain contained four acyl chain crotonyl-CoA with one unsaturation (C4:1). Thioesterase activity was observed by the increase in free thiol-CoA thioester hydrolysis formation of the 2-nitro-5-thiobenzoate anion (TNB^2−), resulting from the reaction of the thiolate anion (RS^−) with Ellman’s reagent (DTNB^2−) and one mixed disulphide (R-S-TNB^−). […]
(§2) The thioesterase activity of SaDHNA was measured according to a protocol of Rodríguez-Guilbe and co-workers[36]. In a ELISA microplate the formation of 2-nitro-5-thiobenzoate anion (TNB2-) by the reaction of thiolate anion (RS^−) with Ellman′s reagent (DTNB^2−) and one mixed disulphide (R-S-TNB^−) catalysed by purified SaDHNA wild type (WT), D16A and E31N was followed by monitoring the change in absorbance of thionitrobenzoic acid (TNB) at 412 nm (extinction coefficient of 13.600 M^−1 cm^−1) using a TECAN GENios plate reader (XFLUOR4 Version: V 4.40, MTX Lab Systems, Inc, USA). […] In addition, uncatalyzed reaction rates were monitored by the combination of same reagents without the enzyme. […]

SaDHNA = assay: Intrinsic (tryptophan) fluorescence quenching of SaDHNA by peptides, Stern–Volmer analysis; type: binding, Staphylococcus aureus; conditions: for bimolecular quenching constant (Kq) / shift of SaDHNA emission spectra maximum / fluorescence intensity of SaDHNA: 60 nM SaDHNA; for bimolecular quenching constant (Kq): 100 mM sodium phosphate pH 6.0, 150 mM NaCl, 22 °C, excitation 290 nm, emission 300–420 nm, peptide 60–1000 nM, from second, slower quenching step, five assays; for shift of SaDHNA emission spectra maximum / fluorescence intensity of SaDHNA: peptide up to 1000 nM, pH 6.0, 22 °C; for shift of SaDHNA emission spectra maximum: maximum emission near 340 nm; for quenching mechanism: from Kq above diffusive limit, complex association between SaDHNA and peptides
Description: Fluorescence spectroscopy was employed to analyse the inhibition of SaDHNA by the aforementioned peptides. The intrinsic fluorescence quenching was assessed for a gradient concentration of Pep-1 and Pep-2. The emission spectra of SaDHNA in buffer only and SaDHNA quenched with different concentrations of Pep-1 and Pep-2 are shown in Fig. 5a,b, respectively. The amino acid sequence of SaDHNA has three tryptophan residues, W29, W79 and W129 and a corresponding maximum emission near 340 nm. […] According to the quenching theory this may indicate a decrease in the lifetime of the excited state, corresponding to an additional rate process that depopulates the excited state and/or the formation of a non-radioactive ground state between the fluorophore and the quencher resulting in a non-fluorescence emission[25],[26].
The Stern–Volmer theory explains the relationship between fluorescence intensity and the presence of a quencher. The data obtained with different concentrations of peptides were analysed independently of the quenching process. Thereby the bimolecular quenching constant (Kq) assigned to the efficiency of quenching and the binding or affinity constant (Ka) for the associated complex were calculated[27],[28]. […] To investigate the quenching process and to estimate Kq and Ka the data from the second and slower step were considered (Fig. 6b,c, respectively). To estimate the bimolecular quenching constant (Kq), the Stern–Volmer quenching constant (Ksv) was determined from the slopes of Io/I versus Q (quencher concentration) (Fig. 6b) and […], which corresponds approximately to the lifetime of a biomolecule fluorophore in the absence of a quenching agent. Therefore, Kq [M^−1 s^−1] for Pep-1 and Pep-2 were 13.3 × 10^12 ± 0.6 × 10^12 and 9.3 × 10^12 ± 1.8 × 10^12, respectively. According to the diffusion controlled quenching theory Kq values close to 1 × 10 ^10 M^−1 s^−1 are associated with a process involving dynamic quenchers, whereas values of Kq larger than the diffusive limit indicate binding interactions between the fluorophore and the quencher.
As the estimated Kq presented higher values than expected for dynamic quenching, we analysed the data applying static quenching theory to estimate the affinity constant Ka for the associated complex. The intercept of log ((Io-I)/I) versus log Q plot (Fig. 6c) is equal to the logarithm of Ka.. Thereby the intercept antilog calculation determines the Ka values for both peptides.
Fluorescence measurements were performed using a Cary eclipse fluorescence spectrophotometer coupled with a peltier temperature control (Agilent, USA). All assays were carried out in 1 mL cuvettes at 22 °C with excitation/emission slits at 20 nm each. The applied excitation wavelength was 290 nm and emission spectra were collected in the range of 300 up to 420 nm in increments of 1 nm. SaDHNA quenching experiments were performed with two peptides (Pep-1: YGSDGR and Pep-2: EGEYE, using a concentration range from 60 up to 1000 nM. SaDHNA at a concentration of 60 nM in 100 mM sodium phosphate buffer pH 6.0, 150 mM NaCl was applied and small volumes of the stock peptide solution were sequentially added to the cuvette for quenching analysis. Each SaDHNA-peptide assay was performed five times. As a control the fluorescence of all buffer and all peptide solutions were measured to correct the observed fluorescence accordingly. The quenching process was assessed by the Stern–Volmer theory.

SaDHNA thioesterase = assay: Inhibition of SaDHNA thioesterase activity by peptides; type: biochemical, Staphylococcus aureus; conditions: 100 µM peptide, 10 µM SaDHNA, 50 mM HEPES-K+ pH 7.5, 1 mM DTNB, room temperature, 412 nm; in comparison to control assay without peptides; triplicates
Excerpt: According to the docking analysis, the protein-peptide complex is mediated mainly through six hydrogen bonds formed between Pep-1 and residues present in the putative active site. The benzoyl ring of the tyrosine of Pep-1 has non-covalent π-stacking interactions with the Try45 benzoyl ring of the SaDHNA structure, as well as with the side chain of Ser55 through a hydrogen bond. The residues important for the substrate binding and activity, Glu31 and Asp16, respectively, are predicted to interact with the amide of the peptide backbone and with the side chain of serine of the peptide via hydrogen bonds as well. […]
The thioesterase activity of SaDHNA was measured according to a protocol of Rodríguez-Guilbe and co-workers[36]. In a ELISA microplate the formation of 2-nitro-5-thiobenzoate anion (TNB2-) by the reaction of thiolate anion (RS^−) with Ellman′s reagent (DTNB^2−) and one mixed disulphide (R-S-TNB^−) catalysed by purified SaDHNA wild type (WT), D16A and E31N was followed by monitoring the change in absorbance of thionitrobenzoic acid (TNB) at 412 nm (extinction coefficient of 13.600 M^−1 cm^−1) using a TECAN GENios plate reader (XFLUOR4 Version: V 4.40, MTX Lab Systems, Inc, USA). […] In addition, uncatalyzed reaction rates were monitored by the combination of same reagents without the enzyme.

SaDHNA D16A = assay: Thioesterase activity of SaDHNA D16A mutant (DTNB/TNB, 412 nm); type: biochemical, Staphylococcus aureus
Description: as §1, §2

SaDHNA E31N = assay: Thioesterase activity of SaDHNA E31N mutant (DTNB/TNB, 412 nm); type: biochemical, Staphylococcus aureus; conditions: stearoyl-CoA as substrate, vs background level
Description: as §1, §2

HpYbgC = conditions: in contrast to EcYbgC and HiYbgC; ref [38]; cited from earlier work
Excerpt: In fact, we observed the presence of a long tunnel associated with the binding site of the acyl moiety of the substrate for HpYbgC, which is ...

[2] = molecular target: 1,4-dihydroxy-2-naphthoyl coenzyme A thioesterase from S. aureus (S. aureus); assay: DLS + SAXS; SaDHNA at 0.8 to 2.5 mg/ml in 100 mM sodium phosphate buffer pH 6.0, 150 mM NaCl, 10 °C; ab initio model with GASBOR
[3] = molecular target: 1,4-dihydroxy-2-naphthoyl coenzyme A thioesterase from S. aureus (S. aureus); assay: crystal structure; space group P2_(1), four molecules in the asymmetric unit; crystals from 100 mM HEPES-Na+ pH 7.0, 1.0 M lithium sulphate, 293 K; 1.3 Å
[4] = molecular target: 1,4-dihydroxy-2-naphthoyl coenzyme A thioesterase from S. aureus (S. aureus); assay: other fluorescence titration; quenching of the intrinsic tryptophan fluorescence of 60 nM SaDHNA by peptide added from 60 up to 1000 nM; 100 mM sodium phosphate buffer pH 6.0, 150 mM NaCl, 22 °C; excitation 290 nm; Stern-Volmer and static quenching analysis of the second, slower quenching step

In the case of `C/C=C/C(=O)SCCNC(=O)CCNC(=O)[C@H](O)C(C)(C)COP(=O)(O)OP(=O)(O)OC[C@H]1O[C@@H](n2cnc3c(N)ncnc32)[C@H](O)[C@@H]1OP(=O)(O)O` [Crotonyl-CoA (C4:1), crotonyl-CoA], the “Enzymatic activity (specific activity)” value ([1]; 10 μM enzyme, 50 mM HEPES-K+ pH 7.5, 1 mM DTNB, room temperature, 200 μl, absorbance 412 nm, 100 μM stearoyl-CoA or 1 mM crotonyl-CoA as substrate, triplicates) is reported as 0.27 ± 0.002 nmol TNB/min/mg protein.

For YGSDGR [Pep-1], the “bimolecular quenching constant (Kq)” value (SaDHNA) was 1.33e+13 ± 6e+11 M⁻¹ s⁻¹, the “shift of SaDHNA emission spectra maximum” value (SaDHNA) was “did not shift the emission spectra maximum” and the “fluorescence intensity of SaDHNA” value (SaDHNA) was “decrease in the fluorescence intensity”. The quenching mechanism (SaDHNA) was “static mechanism”, the “higher binding affinity to SaDHNA than Pep-2” value (SaDHNA; ratio of Ka, Pep-1 vs Pep-2) was 21 fold and the “SaDHNA thioesterase activity in presence of peptide (in words)” value (SaDHNA thioesterase) was “no detectable activity”.

In the case of `CCCCCCCCCCCCCCCCCC(=O)SCCNC(=O)CCNC(=O)[C@H](O)C(C)(C)COP(=O)(O)OP(=O)(O)OC[C@H]1O[C@@H](n2cnc3c(N)ncnc32)[C@H](O)[C@@H]1OP(=O)(O)O` [Stearoyl-CoA (C18:0), stearoyl-CoA], the “Enzymatic activity (specific activity)” value (SaDHNA D16A; D16A mutant, 10 μM enzyme, 50 mM HEPES-K+ pH 7.5, 1 mM DTNB, room temperature, 412 nm, 100 μM stearoyl-CoA, triplicates) is reported as 0.43 ± 0.02 nmol TNB/min/mg protein, the “decrease of hydrolysis rate of stearoyl-CoA by the D16A mutant” value (SaDHNA D16A; D16A vs WT, stearoyl-CoA as substrate) is reported as 300 fold and the “activity of E31N mutant toward stearoyl-CoA (in words)” value (SaDHNA E31N) is reported as “no activity was detected above the background level”. The “higher specific activity toward the extended acyl CoA chain in comparison to the short chain crotonyl-CoA” value ([1]; stearoyl-CoA vs crotonyl-CoA) was 474 fold and the “activity of HpYbgC towards long acyl chains” value (HpYbgC) was “more active”.

“1,4-dihydroxy-2-naphthoyl coenzyme A thioesterase from S. aureus” gave a stoichiometry N [2] of 4 and a stoichiometry N [3] of 4.

In the case of EGEYE [Pep-2], the “bimolecular quenching constant (Kq)” value (SaDHNA) is reported as 9.3e+12 ± 1.8e+12 M⁻¹ s⁻¹, the “shift of SaDHNA emission spectra maximum” value (SaDHNA) is reported as “slight blue shift of the emission” and the “fluorescence intensity of SaDHNA” value (SaDHNA) is reported as “decrease in the fluorescence intensity”. For the same molecule, the quenching mechanism (SaDHNA) was “static mechanism” and the “SaDHNA thioesterase activity in presence of peptide (in words)” value (SaDHNA thioesterase) was “no detectable activity”.

EGEYE [Pep-2] showed a Kq (bimolecular quenching constant) [4] of 9.3e+12 M⁻¹ s⁻¹.
